Reference: patent US20070129344A1, “Bicyclic 6-alkylidene-penem beta-lactamase inhibitors and beta-lactam antibiotic combination: a broad spectrum antibiotic” (priority 2005, published 2007)
≈ marks a conversion by molar mass, not a printed value. Counter-ions that a name gives are not always drawn. Like-named read-outs stand apart in the source and are kept apart here.

Experiments:
E. coli GC 2253 (IRT-2) = test: MIC microbroth dilution; β-lactamase class A (IRT); type: cell-based
Experimental: (§1) The in vitro activities of the antibiotics were determined by the microbroth dilution method as recommended by the National Committee for Clinical Laboratory Standards (NCCLS). (NCCLS. 2000. Methods for Dilution Antimicrobial Susceptibility Tests for Bacteria That Grow Aerobically; Approved Standards: M7-A5, vol. 19. National Committee for Clinical Laboratory Standards, Villanova, Pa.). Mueller-Hinton II broth (MHBII)(BBL Cockeysville, Md.), was used for the testing procedure. […]. The plates were incubated for 18-22 hours at 35° C. in ambient air.

[1] = system: E. coli GC 2295 TEM-1 + AmpC; test: MIC microbroth dilution; β-lactamase class A, C; type: cell-based
Experimental: as §1

[2] = system: A. baumannii GC 7692 TEM-1, AmpC; test: MIC microbroth dilution; β-lactamase class A, C; type: cell-based
Experimental: as §1

E. coli GC 2009 (TEM-10) = test: MIC microbroth dilution; β-lactamase class A (ESBL); type: cell-based
Experimental: as §1

[3] = system: E. coli GC 2883 (OXA-10/PSE-2); test: MIC microbroth dilution; β-lactamase class D; type: cell-based
Experimental: as §1

[4] = system: S. typhimurium GC 4198 SHV-1 CTX-M-5; test: MIC microbroth dilution; β-lactamase class A, A (ESBL); type: cell-based
Experimental: as §1

[5] = system: A. baumannii PT 9444 PTZ-R; test: MIC microbroth dilution; β-lactamase class not determined; type: cell-based
Experimental: as §1

K. pn GC 1827 (TEM-3) = test: MIC microbroth dilution; β-lactamase class A (ESBL); type: cell-based, K. pneumoniae; settings: Cefepime + 4 ug/ml Compound 1
Experimental: as §1

[6] = system: E. coli LSU 80-8 GC 6265 TEM-1; test: MIC microbroth dilution; β-lactamase class A; type: cell-based; settings: E. coli GC 6265; Cefepime + 4 ug/ml Compound 1
How it was run: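 Under ambient air at 35° C., microdilution plates containing Mueller-Hinton II broth were incubated 18-22 hours, following NCCLS M7-A5 procedures.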

class C enzyme AmpC = class C enzyme AmpC (Enterobacter cloacae, UniProt P05364); test: β-Lactamase inhibition IC50 (nitrocefin, spectrophotometric); type: biochemical
Experimental: (§2) β-Lactamase inhibitory activity of the penem inhibitors was determined spectrophotometrically as described by Bush et al., [Bush, K., Macalintal, C., Rasmussen, B. A., Lee, V. and Yang, Y. Antimicrobial Agents and Chemotherapy 1993, 37, 851]. Homogeneously purified class A β-lactamases TEM-1 from E. coli and Imi-1 from Enterobacter cloacae, class B enzyme CcrA from Bacteroides fragilis and class C enzyme AmpC from Enterobacter cloacae were employed in the assay. The enzyme concentrations for TEM-1, Imi-1, CcrA and AmpC were 4.3, 7.1, 1.2 and 2.1 nM, respectively. A wide range of inhibitor concentrations were prepared in 50 mM PO4, pH 7.0 to include the possible IC50 values. The substrate used to initiate the enzyme reaction was nitrocefin at 50 μg/ml in the same buffer as the inhibitor. Initially the enzyme and inhibitor (20 μl each) were preincubated for 10 minutes at 25° C. prior to the addition of 160 μl volume of nitrocefin. Initial rates of hydrolysis were monitored for 5 minutes at 495 nm using a Molecular Devices Spectra Max 250 with kinetic protocol of SoftMax Program. Readings from the Spectra Max 250 were exported and transferred to Microsoft Excel. The percent of inhibition of each inhibitor concentration was calculated based on the control enzyme activity. The inhibitor concentration that caused a 50% reduction in the enzymatic activity (IC50) was determined graphically.

class B enzyme CcrA = class B enzyme CcrA (Bacteroides fragilis, UniProt P25910); test: as above; type: biochemical; settings: enzyme 1.2 nM, 10 min preincubation at 25° C., read-out: IC50 Class B Ccr
Experimental: as §2

[7] = biological target: class A β-lactamase Imi-1 (Enterobacter cloacae, UniProt Q46991); test: as above; type: biochemical
Experimental: as §2

[8] = system: E. cloacae GC 7055 TEM-1, SHV-12 Amp C inducable; type: cell-based; settings: Cefepime + 4 ug/ml Compound 1
Experimental: (§3) The in vitro activities of the antibiotics were determined by the microbroth dilution method as recommended by the National Committee for Clinical Laboratory Standards (NCCLS). (NCCLS. 2000. Methods for Dilution Antimicrobial Susceptibility Tests for Bacteria That Grow Aerobically; Approved Standards: M7-A5, vol. 19. National Committee for Clinical Laboratory Standards, Villanova, Pa.). Mueller-Hinton II broth (MHBII)(BBL Cockeysville, Md.), was used for the testing procedure. […] The plates were incubated for 18-22 hours at 35° C. in ambient air.

[9] = system: E. cloacae GC 1713 AmpC-constitutive; type: cell-based; settings: Cefepime + 4 ug/ml Compound 1
Experimental: as §3

[10] = system: E. cloacae PT 197 Stably derepressed AmpC; type: cell-based; settings: Cefepime + 4 ug/ml Compound 1
Experimental: as §3

[11] = biological target: class A β-lactamase TEM-1 (Escherichia coli, UniProt P62593); test: β-Lactamase inhibition IC50 (nitrocefin, spectrophotometric); type: biochemical, E. coli; settings: enzyme 4.3 nM, 10 min preincubation at 25° C.
Experimental: as §2

[12] = system: E. coli GC 2021 (TEM-10 + pl 6.3); test: MIC microbroth dilution; β-lactamase class A (ESBL); type: cell-based; settings: Cefepime + 4 ug/ml Compound 1
Experimental: as §1

E. coli GC 2905 (P99) = test: MIC microbroth dilution; β-lactamase class C; type: cell-based; settings: Cefepime + 4 ug/ml Compound 1
How it was run: (§4)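 Antibiotics were diluted in Mueller-Hinton II broth by NCCLS microbroth dilution. Plates were then incubated 18-22 hours in ambient air at 35° C.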

[13] = system: P. aeruginosa GC 1764 AmpC-constitutive; test: MIC microbroth dilution; β-lactamase class C; type: cell-based; settings: Cefepime + 4 ug/ml Compound 1
How it was run: as §4

[14] = system: S. marcescens PT 6003 Stably derepressed AmpC; test: MIC microbroth dilution; β-lactamase class C; type: cell-based; settings: Cefepime + 4 ug/ml Compound 1
How it was run: as §4

[15] = system: S. marcescens PT 488 Stably derepressed AmpC; test: MIC microbroth dilution; β-lactamase class C; type: cell-based; settings: Cefepime + 4 ug/ml Compound 1
How it was run: as §4

[16] = system: S. marcescens GC 4150 Stably derepressed AmpC; test: MIC microbroth dilution; β-lactamase class C; type: cell-based; settings: Cefepime + 4 ug/ml Compound 1
How it was run: as §4

class A β-lactamase Imi-1, sequence (Q46991 entry or part of it): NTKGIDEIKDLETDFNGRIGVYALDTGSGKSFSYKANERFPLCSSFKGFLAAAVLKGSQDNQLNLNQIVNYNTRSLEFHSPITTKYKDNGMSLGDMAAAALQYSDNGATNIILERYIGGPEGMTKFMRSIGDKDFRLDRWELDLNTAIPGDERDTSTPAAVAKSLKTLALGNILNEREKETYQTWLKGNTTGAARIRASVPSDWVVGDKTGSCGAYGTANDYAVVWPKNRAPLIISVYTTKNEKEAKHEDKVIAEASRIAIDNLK
class C enzyme AmpC, sequence (P05364 21-381): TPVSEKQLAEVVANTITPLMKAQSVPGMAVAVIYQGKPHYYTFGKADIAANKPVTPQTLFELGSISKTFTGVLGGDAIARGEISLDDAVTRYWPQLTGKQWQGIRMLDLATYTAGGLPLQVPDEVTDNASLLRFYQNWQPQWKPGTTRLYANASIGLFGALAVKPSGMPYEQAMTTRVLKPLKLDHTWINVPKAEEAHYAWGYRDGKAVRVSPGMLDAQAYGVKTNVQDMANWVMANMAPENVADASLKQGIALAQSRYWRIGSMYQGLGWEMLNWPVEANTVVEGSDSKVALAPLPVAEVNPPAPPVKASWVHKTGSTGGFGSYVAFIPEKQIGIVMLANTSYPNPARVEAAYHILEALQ
class B enzyme CcrA, sequence (P25910 19-249): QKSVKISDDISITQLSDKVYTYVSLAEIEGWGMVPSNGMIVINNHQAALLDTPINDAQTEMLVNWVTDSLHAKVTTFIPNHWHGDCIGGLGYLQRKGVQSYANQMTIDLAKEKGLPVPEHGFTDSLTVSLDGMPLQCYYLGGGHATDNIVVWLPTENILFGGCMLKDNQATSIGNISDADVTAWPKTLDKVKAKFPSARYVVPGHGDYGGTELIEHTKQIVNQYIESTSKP
class A β-lactamase TEM-1, sequence (P62593 24-286 limits assumed): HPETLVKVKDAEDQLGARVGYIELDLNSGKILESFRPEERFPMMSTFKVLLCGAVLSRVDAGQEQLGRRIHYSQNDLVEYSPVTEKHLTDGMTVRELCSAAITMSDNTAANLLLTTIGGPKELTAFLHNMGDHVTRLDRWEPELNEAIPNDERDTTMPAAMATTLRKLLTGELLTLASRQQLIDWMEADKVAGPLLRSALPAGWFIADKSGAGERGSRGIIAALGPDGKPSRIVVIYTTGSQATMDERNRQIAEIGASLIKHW

SMILES: CO/N=C(\C(=O)N[C@@H]1C(=O)N2C(C(=O)[O-])=C(C[N+]3(C)CCCC3)CS[C@H]12)c1csc(N)n1 [Cefepime, reference compound]
- MIC (E. coli GC 2253 (IRT-2); Escherichia coli, Cefepime alone, control of Compound 1 test): 0.03 µg/mL (≈ 0.0624 µM)
- MIC ([1]; E. coli GC 2295, Cefepime alone, control of Compound 2 test): 0.50 µg/mL (≈ 1.04 µM)
- MIC ([1]; Escherichia coli): 0.5 µg/mL (≈ 1.04 µM)
- MIC ([2]; A. baumannii GC 7692, Cefepime alone, control of Compound 2 test): >16 µg/mL
- MIC ([2]; Acinetobacter baumannii): > 16 µg/mL
- MIC (E. coli GC 2009 (TEM-10); E. coli GC 2009, Cefepime alone, control of Compound 2 test): >16 µg/mL
- MIC (E. coli GC 2009 (TEM-10); Escherichia coli): > 16 µg/mL
- MIC ([3]; Cefepime alone, control of Compound 2 test): 0.06 µg/mL (≈ 0.125 µM)
- MIC ([4]; S. typhimurium GC 4198, Cefepime alone, control of Compound 2 test): >16 µg/mL
- MIC ([4]; Salmonella enterica, TYPHIMURIUM): > 16 µg/mL
- MIC ([5]; A. baumannii PT 9444, Cefepime alone, control of Compound 2 test): >16 µg/mL
- MIC ([5]; Acinetobacter baumannii, PT9444PTZR): > 16 µg/mL

SMILES: O=C([O-])C1=CS[C@@H]2/C(=C\c3cn4c(n3)CCC4)C(=O)N12.[Na+] [Compound 1, (5R), (6Z)-6-(6,7-Dihydro-5H-pyrrolo[1,2-a]imidazol-2-ylmethylene)-7-oxo-4-thia-1-aza-bicyclo[3.2.0]hept-2-ene-2-carboxylic Acid, Sodium Salt]
- MIC (K. pn GC 1827 (TEM-3)): 0.03 µg/mL
- MIC [6]: 0.03 µg/mL
- MIC (E. coli GC 2253 (IRT-2); Cefepime + 4 ug/ml Compound 1): 0.03 µg/mL
- IC50 (class C enzyme AmpC; enzyme 2.1 nM, 10 min preincubation at 25° C., nitrocefin, read-out: IC50 Class C AmpC): 4.8 nM
- IC50 (class B enzyme CcrA): 66 nM
- IC50 ([7]; enzyme 7.1 nM, 10 min preincubation at 25° C., nitrocefin, read-out: IC50 Class A Imi): 7.8 nM
- MIC ([1]; E. coli GC 2295, Cefepime + 4 ug/ml Compound 1): 0.12 µg/mL
- MIC ([2]; A. baumannii GC 7692, Cefepime + 4 ug/ml Compound 1): >16 µg/mL
- MIC [8]: 0.06 µg/mL
- MIC [9]: 0.12 µg/mL
- MIC [10]: 0.50 µg/mL
- IC50 [11]: 0.4 nM
- MIC (E. coli GC 2009 (TEM-10); E. coli GC 2009, Cefepime + 4 ug/ml Compound 1): 0.12 µg/mL
- MIC [12]: 0.12 µg/mL
- MIC ([3]; Cefepime + 4 ug/ml Compound 1): 0.06 µg/mL
- MIC (E. coli GC 2905 (P99)): 0.06 µg/mL
- MIC [13]: 0.50 µg/mL
- MIC [14]: 0.25 µg/mL
- MIC [15]: 0.06 µg/mL
- MIC [16]: 0.25 µg/mL
- MIC ([4]; S. typhimurium GC 4198, Cefepime + 4 ug/ml Compound 1): 0.50 µg/mL
- MIC ([5]; A. baumannii PT 9444, Cefepime + 4 ug/ml Compound 1): 16 µg/mL

SMILES: O=C(O)C1=CS[C@@H]2/C(=C\c3cn4c(n3)COCC4)C(=O)N12 [Compound 2, (5R), (6Z)-6-(5,6-Dihydro-8H-imidazo[2.1-c][1,4]oxazin-2-ylmethylene)-7-oxo-4-thia-1-azabicyclo[3.2.0]hept-2-ene-2-carboxylic Acid, Sodium Salt]
- IC50 (class C enzyme AmpC): 2.2 nM
- IC50 (class B enzyme CcrA): 230 nM
- IC50 [7]: 20 nM
- IC50 [11]: 0.6 nM
